Patent US10350271B2, “Lipidated peptides for lowering blood glucose” (USTAV ORGANICKE CHEMIE A BIOCHEMIE AKADEMIE VED CR, V.V.I., priority 2014, dated 2019)
Numbered stars: 1 amine (or outer) side, 2 acyl side, 3 side chain; on linkers, the order of the positions; unused ones are H or OH. Square brackets hold non-standard residues; d marks the D form. Side chains are listed from the residue outwards. Ends that are not written are not given here. Peptide text beside a SMILES is read from it. * marks the point of attachment. Phe(4-NO2) = N[C@@H](Cc1ccc([N+](=O)[O-])cc1)C(=O)O; γGlu = O=C(O)[C@H](CCC(=O)[*:2])N[*:1]; 1Nal = N[C@@H](Cc1cccc2ccccc12)C(=O)O; Palmitoyl = CCCCCCCCCCCCCCCC(=O)*; Myristoyl = CCCCCCCCCCCCCC(=O)*; Nle = CCCC[C@H](N)C(=O)O

Assays:
C57BL/6 mice = test: Food intake in fasted mice after SC injection; type: in vivo; details: 5 mg/kg SC, 45 min after injection
Procedure, shortened: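 Saline, PrRP or a lipidated analog was injected SC (1-10 mg/kg) after a 17 h fast with free water, animals housed singly.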

[1] = target: T1, human PrRP receptor GPR10 (Homo sapiens, UniProt P49683); test: Competitive binding in CHO cells transfected with human GPR10 (human 125I-PrRP31); details: for Ki: CHO cells, human 125I-PrRP31, read-out: Ki, GPR10 human receptor transfected in CHO cells; for % of PrRP31, GPR10 human receptor transfected in CHO cells: affinity relative to PrRP31
T1 construct: host or cells: CHO cells
T1 sequence (P49683 1-370): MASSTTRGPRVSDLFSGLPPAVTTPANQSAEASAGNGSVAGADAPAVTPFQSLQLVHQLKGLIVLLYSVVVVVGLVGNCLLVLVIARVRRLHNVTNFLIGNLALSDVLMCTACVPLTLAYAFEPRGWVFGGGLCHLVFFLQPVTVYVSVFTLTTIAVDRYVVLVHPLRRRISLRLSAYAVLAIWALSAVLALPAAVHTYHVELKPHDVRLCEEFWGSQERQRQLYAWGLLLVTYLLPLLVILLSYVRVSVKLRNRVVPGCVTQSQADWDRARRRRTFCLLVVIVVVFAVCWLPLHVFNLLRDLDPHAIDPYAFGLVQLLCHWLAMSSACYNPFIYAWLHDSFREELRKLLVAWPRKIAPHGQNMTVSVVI
Procedure, shortened: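 Values from one-site nonlinear regression of displacement curves: analogs (final 10^-11 to 10^-4 mol·l^-1) competed with 125I-PrRP31 (final 5×10^-11 mol·l^-1) on adherent human GPR10 CHO cells. Binding ran 1 h at room temperature, pH 7.4 buffer with NaCl, MgCl2, CaCl2, glucose, BSA; cell-bound radioactivity counted after NaOH lysis.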

rat PrRP receptor = target: T2, rat PrRP receptor (Rattus norvegicus, UniProt Q64121); test: Competitive binding in RC-4B/C rat pituitary cells (125I-rat PrRP31); details: for Ki: displacement of 125I-rat PrRP31, read-out: Ki, RC-4B/C rat pituitary cells ^25I-rat PrRP31; for % of PrRP31, RC-4B/C rat pituitary cells: affinity relative to PrRP31
T2 construct: host or cells: RC-4B/C rat pituitary cell line
T2 sequence (Q64121 1-370): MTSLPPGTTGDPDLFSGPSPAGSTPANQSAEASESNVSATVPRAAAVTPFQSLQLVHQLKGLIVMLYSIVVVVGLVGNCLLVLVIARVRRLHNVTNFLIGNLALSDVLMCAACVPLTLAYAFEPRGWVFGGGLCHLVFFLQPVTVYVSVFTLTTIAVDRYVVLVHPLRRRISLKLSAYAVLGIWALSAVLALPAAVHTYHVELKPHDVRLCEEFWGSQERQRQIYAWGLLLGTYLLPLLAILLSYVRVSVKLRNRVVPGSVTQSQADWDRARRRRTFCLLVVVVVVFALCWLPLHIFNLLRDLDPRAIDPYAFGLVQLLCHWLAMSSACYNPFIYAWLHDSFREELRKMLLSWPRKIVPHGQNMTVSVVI
Procedure, shortened: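 Displacement of rat 125I-PrRP31 ([…]) by test analogs, 10^−11–10^−4 mol·l^−1, on whole RC-4B/C cells, 60 min RT. Bound counts measured by γ-counter in duplicate, ≥3 repeats, analyzed by nonlinear one-site binding regression.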

## CCCCCCCCCCCCCCCC(=O)N[C@@H](CO)C(=O)N[C@@H](CCCNC(=N)N)C(=O)N[C@@H](C)C(=O)N[C@@H](Cc1c[nH]cn1)C(=O)N[C@@H](CCC(N)=O)C(=O)N[C@@H](Cc1c[nH]cn1)C(=O)N[C@@H](CO)C(=O)N[C@@H](CCCC)C(=O)N[C@@H](CCC(=O)O)C(=O)N[C@H](C(=O)N[C@@H](CCCNC(=N)N)C(=O)N[C@H](C(=O)N1CCC[C@H]1C(=O)N[C@@H](CC(=O)O)C(=O)N[C@H](C(=O)N[C@@H](CC(N)=O)C(=O)N1CCC[C@H]1C(=O)N[C@@H](C)C(=O)N[C@@H](Cc1c[nH]c2ccccc12)C(=O)N[C@@H](Cc1ccc(O)cc1)C(=O)N[C@H](C(=O)NCC(=O)N[C@@H](CCCNC(=N)N)C(=O)NCC(=O)N[C@H](C(=O)N[C@@H](CCCNC(=N)N)C(=O)N1CCC[C@H]1C(=O)N[C@H](C(=O)NCC(=O)N[C@@H](CCCNC(=N)N)C(=O)N[C@@H](Cc1ccc([N+](=O)[O-])cc1)C(N)=O)C(C)C)[C@@H](C)CC)[C@@H](C)O)[C@@H](C)CC)[C@@H](C)O)[C@@H](C)O [Analog 18] (Palmitoyl-SRAHQHS[Nle]ETRTPDINPAWYTGRGIRPVGR[Phe(4-NO2)]-NH2)
C57BL/6 mice
  Food intake in mice % of saline-treated group: 0.7%
[1]
  Ki: 0.77 ± 0.28 nM
  % of PrRP31, GPR10 human receptor transfected in CHO cells: 505%
Rat PrRP receptor; RC-4B/C cells
  Ki: 0.58 ± 0.1 nM
Rat PrRP receptor
  % of PrRP31, RC-4B/C rat pituitary cells: 850%

## CCCCCCCCCCCCCCCC(=O)N[C@@H](CCC(=O)NCCCC[C@H](NC(=O)[C@@H](NC(=O)[C@H](CCC(=O)O)NC(=O)[C@H](CCSC)NC(=O)[C@H](CO)NC(=O)[C@H](Cc1c[nH]cn1)NC(=O)[C@H](CCC(=O)O)NC(=O)[C@H](Cc1c[nH]cn1)NC(=O)[C@@H](NC(=O)[C@H](CCC(=O)O)NC(=O)[C@@H](N)CO)[C@@H](C)O)[C@@H](C)CC)C(=O)N[C@H](C(=O)N1CCC[C@H]1C(=O)N[C@@H](CC(=O)O)C(=O)N[C@H](C(=O)N[C@@H](CC(N)=O)C(=O)N1CCC[C@H]1C(=O)N[C@@H](C)C(=O)N[C@@H](Cc1c[nH]c2ccccc12)C(=O)N[C@@H](Cc1ccc(O)cc1)C(=O)N[C@@H](C)C(=O)N[C@@H](CO)C(=O)N[C@@H](CCCNC(=N)N)C(=O)NCC(=O)N[C@H](C(=O)N[C@@H](CCCNC(=N)N)C(=O)N1CCC[C@H]1C(=O)N[C@H](C(=O)NCC(=O)N[C@@H](CCCNC(=N)N)C(=O)N[C@@H](Cc1ccccc1)C(N)=O)C(C)C)[C@@H](C)CC)[C@@H](C)CC)[C@@H](C)O)C(=O)O [Analog 56] (H-SETHEHSMEIK([γGlu-Palmitoyl])TPDINPAWYASRGIRPVGRF-NH2)
C57BL/6 mice
  Food intake in mice % of saline-treated group: 10%
[1]
  Ki: 5.66 ± 0.39 nM
  % of PrRP31, GPR10 human receptor transfected in CHO cells: 57%
Rat PrRP receptor; RC-4B/C cells
  Ki: 4.23 ± 2.11 nM
Rat PrRP receptor
  % of PrRP31, RC-4B/C rat pituitary cells: 57%

## CCCCCCCCCCCCCCCC(=O)N[C@@H](CO)C(=O)N[C@@H](CCCNC(=N)N)C(=O)N[C@@H](C)C(=O)N[C@@H](Cc1c[nH]cn1)C(=O)N[C@@H](CCC(N)=O)C(=O)N[C@@H](Cc1c[nH]cn1)C(=O)N[C@@H](CO)C(=O)N[C@@H](CCCC)C(=O)N[C@@H](CCC(=O)O)C(=O)N[C@H](C(=O)N[C@@H](CCCNC(=N)N)C(=O)N[C@H](C(=O)N1CCC[C@H]1C(=O)N[C@@H](CC(=O)O)C(=O)N[C@H](C(=O)N[C@@H](CC(N)=O)C(=O)N1CCC[C@H]1C(=O)N[C@@H](C)C(=O)N[C@@H](Cc1c[nH]c2ccccc12)C(=O)N[C@@H](Cc1ccc(O)cc1)C(=O)N[C@H](C(=O)NCC(=O)N[C@@H](CCCNC(=N)N)C(=O)NCC(=O)N[C@H](C(=O)N[C@@H](CCCNC(=N)N)C(=O)N1CCC[C@H]1C(=O)N[C@H](C(=O)NCC(=O)N[C@@H](CCCNC(=N)N)C(=O)N[C@@H](Cc1ccccc1)C(N)=O)C(C)C)[C@@H](C)CC)[C@@H](C)O)[C@@H](C)CC)[C@@H](C)O)[C@@H](C)O [Analog 8] (Palmitoyl-SRAHQHS[Nle]ETRTPDINPAWYTGRGIRPVGRF-NH2)
C57BL/6 mice
  Food intake in mice % of saline-treated group: 7%
[1]
  % of PrRP31, GPR10 human receptor transfected in CHO cells: 128%
Rat PrRP receptor
  % of PrRP31, RC-4B/C rat pituitary cells: 967%

## TPDINPAWYTGRGIRPVGRF-NH2 [Rat PrRP20, reference compound]
C57BL/6 mice
  Food intake in mice % of saline-treated group: 100%
[1]
  Ki: 5.56 ± 0.7 nM
  % of PrRP31, GPR10 human receptor transfected in CHO cells: 70%
Rat PrRP receptor
  % of PrRP31, RC-4B/C rat pituitary cells: 143%

## CCCCCCCCCCCCCC(=O)N[C@@H](CO)C(=O)N[C@@H](Cc1c[nH]cn1)C(=O)N[C@@H](CCC(N)=O)C(=O)N[C@@H](CCCNC(=N)N)C(=O)N1CCC[C@H]1C(=O)N[C@@H](C)C(=O)N[C@@H](CC(=O)O)C(=O)N[C@H](C(=O)N[C@@H](Cc1c[nH]cn1)C(=O)N[C@@H](Cc1c[nH]c2ccccc12)C(=O)N[C@@H](Cc1ccc(O)cc1)C(=O)N1CCC[C@H]1C(=O)N[C@@H](CCCNC(=N)N)C(=O)NCC(=O)N[C@@H](CCCC)C(=O)N[C@@H](Cc1ccccc1)C(=O)N1CCC[C@H]1C(=O)N[C@H](C(=O)N[C@H](C(=O)NCC(=O)N[C@@H](CCCNC(=N)N)C(=O)N[C@H](C(=O)N[C@H](C(=O)N[C@@H](C)C(=O)N[C@@H](CCCNC(=N)N)C(=O)N[C@@H](CC(N)=O)C(=O)NCC(=O)N[C@@H](CCC(=O)O)C(=O)N[C@H](C(=O)N[C@@H](CO)C(=O)N[C@@H](CCCNC(=N)N)C(=O)O)C(C)C)[C@@H](C)O)[C@@H](C)CC)[C@@H](C)CC)[C@@H](C)O)[C@@H](C)O [Analog 20] (Myristoyl-SHQRPADTHWYPRG[Nle]FPTIGRITARNGEVSR-OH; C-terminus assumed)
C57BL/6 mice
  Food intake in mice % of saline-treated group: 100%
[1]
  Ki: 262 ± 55.4 nM
  % of PrRP31, GPR10 human receptor transfected in CHO cells: 1.5%
Rat PrRP receptor; RC-4B/C cells
  Ki: 123 ± 16.1 nM
Rat PrRP receptor
  % of PrRP31, RC-4B/C rat pituitary cells: 4.6%

## CCCCCCCCCCCCCC(=O)N[C@H](C(=O)N1CCC[C@H]1C(=O)N[C@@H](CC(=O)O)C(=O)N[C@H](C(=O)N[C@@H](CC(N)=O)C(=O)N1CCC[C@H]1C(=O)N[C@@H](C)C(=O)N[C@@H](Cc1c[nH]c2ccccc12)C(=O)N[C@@H](Cc1ccc(O)cc1)C(=O)N[C@@H](C)C(=O)N[C@@H](CO)C(=O)N[C@@H](CCCNC(=N)N)C(=O)NCC(=O)N[C@H](C(=O)N[C@@H](CCCNC(=N)N)C(=O)N1CCC[C@H]1C(=O)N[C@H](C(=O)NCC(=O)N[C@@H](CCCNC(=N)N)C(=O)N[C@@H](Cc1ccccc1)C(N)=O)C(C)C)[C@@H](C)CC)[C@@H](C)CC)[C@@H](C)O [Analog 2] (Myristoyl-TPDINPAWYASRGIRPVGRF-NH2)
C57BL/6 mice
  Food intake in mice % of saline-treated group: 10%
[1]
  % of PrRP31, GPR10 human receptor transfected in CHO cells: 90%
[1]; human GPR10 receptor
  Displacement of human 125I-PrRP binding: nmol·l^−1 range
Rat PrRP receptor; RC-4B/C cells, rat PrRP receptor
  Displacement of rat 125I-PrRP binding: nmol·l^−1 range
Rat PrRP receptor
  % of PrRP31, RC-4B/C rat pituitary cells: 1027%

## CCCCCCCCCCCCCCCC(=O)N[C@@H](CO)C(=O)N[C@@H](CCCNC(=N)N)C(=O)N[C@@H](C)C(=O)N[C@@H](Cc1c[nH]cn1)C(=O)N[C@@H](CCC(N)=O)C(=O)N[C@@H](Cc1c[nH]cn1)C(=O)N[C@@H](CO)C(=O)N[C@@H](CCCC)C(=O)N[C@@H](CCC(=O)O)C(=O)N[C@H](C(=O)N[C@@H](CCCNC(=N)N)C(=O)N[C@H](C(=O)N1CCC[C@H]1C(=O)N[C@@H](CC(=O)O)C(=O)N[C@H](C(=O)N[C@@H](CC(N)=O)C(=O)N1CCC[C@H]1C(=O)N[C@@H](C)C(=O)N[C@@H](Cc1c[nH]c2ccccc12)C(=O)N[C@@H](Cc1ccc(O)cc1)C(=O)N[C@H](C(=O)NCC(=O)N[C@@H](CCCNC(=N)N)C(=O)NCC(=O)N[C@H](C(=O)N[C@@H](CCCNC(=N)N)C(=O)N1CCC[C@H]1C(=O)N[C@H](C(=O)NCC(=O)N[C@@H](CCCNC(=N)N)C(=O)N[C@@H](Cc1cccc2ccccc12)C(N)=O)C(C)C)[C@@H](C)CC)[C@@H](C)O)[C@@H](C)CC)[C@@H](C)O)[C@@H](C)O [Analog 12] (Palmitoyl-SRAHQHS[Nle]ETRTPDINPAWYTGRGIRPVGR[1Nal]-NH2)
C57BL/6 mice
  Food intake in mice % of saline-treated group: 13%
[1]
  % of PrRP31, GPR10 human receptor transfected in CHO cells: 91%
Rat PrRP receptor
  % of PrRP31, RC-4B/C rat pituitary cells: 111%
